Measurements as given in the NIST ThermoML archive (doi:10.1021/je800334m).
Numbers after ± are expanded uncertainties.

Assays:
[1] = Liquid
[2] = excess molar enthalpy (molar enthalpy of mixing); xn = mol fraction of the nth substance listed; conditions: Liquid

CCCO [propan-1-ol]
molar volume [m3/mol], [1]
Conditions | 298.15 K | 313.15 K | 328.15 K
100 kPa | 7.514e-05 ± 5e-08 | 7.632e-05 ± 6e-08 | 7.759e-05 ± 6e-08
10000 kPa | 7.452e-05 ± 9e-08 | 7.569e-05 ± 9e-08 | 7.694e-05 ± 1e-07

CCO [ethanol]
molar volume [m3/mol], [1]
Conditions | 298.15 K | 313.15 K | 328.15 K
100 kPa | 5.867e-05 ± 4e-08 | 5.964e-05 ± 5e-08 | 6.067e-05 ± 5e-08
10000 kPa | 5.803e-05 ± 7e-08 | 5.899e-05 ± 8e-08 | 6.001e-05 ± 9e-08

CC(C)O [propan-2-ol]
molar volume [m3/mol], [1]
Conditions | 298.15 K | 313.15 K | 328.15 K
100 kPa | 7.694e-05 ± 6e-08 | 7.822e-05 ± 6e-08 | 7.962e-05 ± 7e-08
10000 kPa | 7.594e-05 ± 1e-07 | 7.72e-05 ± 1e-07 | 7.857e-05 ± 1.1e-07

CO [methanol]
molar volume [m3/mol], [1]
Conditions | 298.15 K | 313.15 K | 328.15 K
100 kPa | 4.073e-05 ± 5e-08 | 4.146e-05 ± 6e-08 | 4.221e-05 ± 7e-08
10000 kPa | 4.024e-05 ± 5e-08 | 4.096e-05 ± 6e-08 | 4.17e-05 ± 7e-08

CN(C)CCO [2-(N,N-dimethylamino)ethanol] + CC(C)O
excess molar enthalpy [kcal/mol], [2]
Conditions | 298.2 K | 313.2 K | 328.2 K
100 kPa, x1 = 0.0496 | – | -0.00404 ± 0.00043 | –
100 kPa, x1 = 0.0499 | – | – | -0.00858 ± 0.000502
100 kPa, x1 = 0.1008 | 0.00387 ± 0.000454 | -0.00413 ± 0.000454 | –
100 kPa, x1 = 0.1014 | – | – | -0.0122 ± 0.000574
100 kPa, x1 = 0.1502 | 0.00667 ± 0.000502 | -0.00304 ± 0.00043 | –
100 kPa, x1 = 0.1511 | – | – | -0.0135 ± 0.000598
100 kPa, x1 = 0.1994 | 0.00889 ± 0.000526 | -0.00167 ± 0.00043 | –
100 kPa, x1 = 0.2005 | – | – | -0.0137 ± 0.000621
100 kPa, x1 = 0.2501 | 0.0103 ± 0.00055 | -0.000645 ± 0.000406 | –
100 kPa, x1 = 0.2513 | – | – | -0.0135 ± 0.000621
100 kPa, x1 = 0.3005 | 0.0112 ± 0.000574 | 0.000215 ± 0.000406 | –
100 kPa, x1 = 0.3018 | – | – | -0.0132 ± 0.000621
100 kPa, x1 = 0.3504 | 0.0115 ± 0.000574 | 0.000693 ± 0.000406 | –
100 kPa, x1 = 0.3519 | – | – | -0.013 ± 0.000621
100 kPa, x1 = 0.3999 | 0.0114 ± 0.000574 | 0.000813 ± 0.000406 | –
100 kPa, x1 = 0.4015 | – | – | -0.0127 ± 0.000598
100 kPa, x1 = 0.4507 | 0.0109 ± 0.00055 | 0.000717 ± 0.000406 | –
100 kPa, x1 = 0.4524 | – | – | -0.0124 ± 0.000598
100 kPa, x1 = 0.501 | 0.01 ± 0.00055 | 0.000478 ± 0.000406 | –
100 kPa, x1 = 0.5026 | – | – | -0.012 ± 0.000574
100 kPa, x1 = 0.5505 | 0.00891 ± 0.000526 | -0.00012 ± 0.000406 | –
100 kPa, x1 = 0.5522 | – | – | -0.0115 ± 0.000574
100 kPa, x1 = 0.5993 | 0.00784 ± 0.000502 | -0.000287 ± 0.000406 | –
100 kPa, x1 = 0.6009 | – | – | -0.0109 ± 0.00055
100 kPa, x1 = 0.6508 | – | – | -0.0103 ± 0.00055
10000 kPa, x1 = 0.0499 | – | -0.0044 ± 0.000454 | -0.00937 ± 0.000526
10000 kPa, x1 = 0.0998 | 0.00325 ± 0.00043 | -0.00464 ± 0.000454 | -0.0129 ± 0.000598
10000 kPa, x1 = 0.1494 | – | -0.00457 ± 0.000502 | –
10000 kPa, x1 = 0.2005 | 0.00825 ± 0.000526 | -0.00237 ± 0.00043 | -0.0145 ± 0.000645
10000 kPa, x1 = 0.2496 | 0.00958 ± 0.00055 | -0.00134 ± 0.00043 | -0.0143 ± 0.000645
10000 kPa, x1 = 0.3 | 0.0103 ± 0.00055 | -0.000598 ± 0.000406 | -0.0139 ± 0.000621
10000 kPa, x1 = 0.35 | 0.0107 ± 0.00055 | -0.000167 ± 0.000406 | -0.0135 ± 0.000621
10000 kPa, x1 = 0.3995 | 0.0107 ± 0.00055 | -2.39e-05 | -0.0131 ± 0.000621
10000 kPa, x1 = 0.4504 | 0.0103 ± 0.00055 | -9.56e-05 ± 0.000406 | -0.0127 ± 0.000598
10000 kPa, x1 = 0.5006 | 0.0097 ± 0.000526 | -0.000311 ± 0.000406 | -0.0123 ± 0.000598
10000 kPa, x1 = 0.5501 | 0.00889 ± 0.000526 | -0.000621 ± 0.000406 | -0.0118 ± 0.000574
10000 kPa, x1 = 0.6009 | 0.00789 ± 0.000502 | – | -0.0111 ± 0.000574
10000 kPa, x1 = 0.6508 | – | – | -0.0109 ± 0.00055

CN(C)CCO [2-(N,N-dimethylamino)ethanol]
molar volume [m3/mol], [1]
Conditions | 298.15 K | 313.15 K | 328.15 K
100 kPa | 0.0001009 ± 5e-08 | 0.0001024 ± 5e-08 | 0.0001039 ± 5e-08
10000 kPa | 0.0001009 ± 7e-08 | 0.0001024 ± 8e-08 | 0.0001039 ± 9e-08

CN(C)CCO [2-(N,N-dimethylamino)ethanol] + CCCO
excess molar enthalpy [kcal/mol], [2], Flow calorimetry
Conditions | 298.2 K | 313.2 K | 328.2 K
100 kPa, x1 = 0.2007 | -0.0457 ± 0.00105 | – | -0.0632 ± 0.00143
100 kPa, x1 = 0.2509 | -0.0511 ± 0.00115 | – | -0.0696 ± 0.00155
100 kPa, x1 = 0.2984 | – | -0.06 ± 0.00134 | –
100 kPa, x1 = 0.3008 | -0.0552 ± 0.00124 | – | -0.0748 ± 0.00167
100 kPa, x1 = 0.3505 | -0.0583 ± 0.00131 | -0.0638 ± 0.00143 | -0.0781 ± 0.00172
100 kPa, x1 = 0.3999 | -0.0599 ± 0.00134 | – | -0.0796 ± 0.00177
100 kPa, x1 = 0.4012 | – | -0.066 ± 0.00148 | –
100 kPa, x1 = 0.4501 | – | -0.0668 ± 0.00148 | –
100 kPa, x1 = 0.4507 | -0.0602 ± 0.00134 | – | -0.0797 ± 0.00177
100 kPa, x1 = 0.499 | -0.0606 ± 0.00136 | – | -0.0781 ± 0.00172
100 kPa, x1 = 0.5004 | – | -0.0662 ± 0.00148 | –
100 kPa, x1 = 0.5488 | – | -0.0642 ± 0.00143 | –
100 kPa, x1 = 0.5509 | -0.0586 ± 0.00131 | – | -0.0749 ± 0.00165
100 kPa, x1 = 0.5985 | – | -0.0613 ± 0.00136 | –
100 kPa, x1 = 0.6 | -0.056 ± 0.00127 | – | -0.0707 ± 0.00158
100 kPa, x1 = 0.6497 | – | -0.0571 ± 0.00129 | –
100 kPa, x1 = 0.6505 | -0.0524 ± 0.00117 | – | -0.065 ± 0.00146
100 kPa, x1 = 0.6986 | – | -0.0518 ± 0.00117 | –
100 kPa, x1 = 0.7001 | – | – | -0.0585 ± 0.00131
100 kPa, x1 = 0.7488 | – | -0.0455 ± 0.00105 | –
100 kPa, x1 = 0.8005 | – | -0.0377 ± 0.000884 | –
100 kPa, x1 = 0.8495 | – | -0.0297 ± 0.000717 | –
10000 kPa, x1 = 0.2001 | -0.0457 ± 0.00105 | – | -0.063 ± 0.00143
10000 kPa, x1 = 0.2492 | – | -0.0553 ± 0.00124 | –
10000 kPa, x1 = 0.2503 | -0.0511 ± 0.00115 | – | -0.0701 ± 0.00158
10000 kPa, x1 = 0.2998 | – | -0.0611 ± 0.00136 | –
10000 kPa, x1 = 0.3004 | -0.0553 ± 0.00124 | – | -0.0757 ± 0.00167
10000 kPa, x1 = 0.3489 | – | -0.0646 ± 0.00143 | –
10000 kPa, x1 = 0.3502 | -0.0582 ± 0.00131 | – | -0.079 ± 0.00174
10000 kPa, x1 = 0.3995 | -0.0602 ± 0.00134 | -0.0667 ± 0.00148 | -0.0808 ± 0.00179
10000 kPa, x1 = 0.4484 | – | -0.0674 ± 0.00151 | –
10000 kPa, x1 = 0.4504 | -0.0609 ± 0.00136 | – | -0.0811 ± 0.00179
10000 kPa, x1 = 0.4986 | – | -0.067 ± 0.00148 | –
10000 kPa, x1 = 0.5007 | -0.0605 ± 0.00136 | – | -0.0793 ± 0.00174
10000 kPa, x1 = 0.5504 | -0.0587 ± 0.00131 | -0.065 ± 0.00146 | -0.0764 ± 0.0017
10000 kPa, x1 = 0.5994 | -0.056 ± 0.00127 | – | -0.0722 ± 0.0016
10000 kPa, x1 = 0.6001 | – | -0.0618 ± 0.00139 | –
10000 kPa, x1 = 0.6497 | -0.0527 ± 0.0012 | – | -0.0667 ± 0.00148
10000 kPa, x1 = 0.6512 | – | -0.0573 ± 0.00129 | –
10000 kPa, x1 = 0.7 | – | -0.0518 ± 0.00117 | –
10000 kPa, x1 = 0.7501 | – | -0.0453 ± 0.00105 | –
10000 kPa, x1 = 0.8015 | – | -0.0375 ± 0.000884 | –
10000 kPa, x1 = 0.8503 | – | -0.0293 ± 0.000741 | –
